In PMC8724838 (Biomolecules & Therapeutics, 2021):
pEC50: −log10 of the molar value.

Experiments:
Type in all cases: cell-based
Mrgpra1 [1] = target: T1, Mrgpra1 (Mus musculus, UniProt Q91WW5); experiment: calcium imaging, […] DCA in Mrgpra1-HEK293T cells
T1 sequence (Q91WW5 1-304): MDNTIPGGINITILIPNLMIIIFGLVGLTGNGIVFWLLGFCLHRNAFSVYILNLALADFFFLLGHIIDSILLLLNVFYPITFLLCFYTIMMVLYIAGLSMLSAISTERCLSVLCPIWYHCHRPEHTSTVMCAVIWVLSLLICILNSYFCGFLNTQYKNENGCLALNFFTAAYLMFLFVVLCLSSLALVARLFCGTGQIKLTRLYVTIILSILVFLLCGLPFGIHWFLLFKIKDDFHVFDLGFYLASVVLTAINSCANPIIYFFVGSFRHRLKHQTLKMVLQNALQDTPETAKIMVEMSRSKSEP

Mrgprb2 = target: T2, Mrgprb2 (Mus musculus, UniProt Q3KNA1); experiment: calcium imaging
T2 sequence (Q3KNA1 1-338): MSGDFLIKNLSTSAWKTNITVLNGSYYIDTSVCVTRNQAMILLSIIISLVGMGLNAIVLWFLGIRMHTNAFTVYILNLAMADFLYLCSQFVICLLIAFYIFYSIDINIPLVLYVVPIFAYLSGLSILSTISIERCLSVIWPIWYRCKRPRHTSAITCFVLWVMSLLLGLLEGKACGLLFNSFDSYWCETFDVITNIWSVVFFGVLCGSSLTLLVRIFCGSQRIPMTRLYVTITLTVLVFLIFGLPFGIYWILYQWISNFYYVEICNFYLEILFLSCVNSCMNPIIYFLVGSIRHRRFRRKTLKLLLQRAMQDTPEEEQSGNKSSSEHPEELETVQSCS

Mrgpra1 [2] = target: T1, Mrgpra1; experiment: calcium imaging

SMILES	calcium imaging, 100 μM DCA in Mrgpra1-HEK293T cells (weaker than LCA) (Mrgpra1 [1])	pEC50 (Mrgprb2)	pEC50 (Mrgpra1 [2])
C[C@H](CCC(=O)O)[C@H]1CC[C@H]2[C@@H]3CC[C@@H]4C[C@H](O)CC[C@]4(C)[C@H]3C[C@H](O)[C@]12C [DCA, deoxycholic acid]	also elevated the fluorescence intensity in Mrgpra1-HEK293T, but to a lesser extent (Fig. 1B, 1C)	–	–
C[C@H](CCC(=O)O)[C@H]1CC[C@H]2[C@@H]3CC[C@@H]4C[C@H](O)CC[C@]4(C)[C@H]3CC[C@]12C [LCA, 3α-hydroxy-5β-cholan-24-oic acid]	–	3.74	3.54
